Converted amounts (≈) assume the structure as drawn. Like-named read-outs stand apart in the source and are kept apart here.

One assay relates to N. gonorrhoeae. The following applies: N. gonorrhoeae MMX 683 (ATCC 49226); cited from earlier work.
Assay [1] has as its system lipid synthesis in E. coli ATCC 25922. In words: Macromolecular synthesis assay: lipid synthesis ([3H] glycerol). The following applies: control drug, concentration not given. The assay is classed as cell-based, Escherichia coli. The method, then:
Chloroform (125 μL) was then added to each reaction and vortexed, followed by the addition of 125 μl dH2O and vortexing. Reactions were centrifuged at 13,000 rpm in a microfuge for 10 min, and then 150 μl of the organic phase was transferred to a scintillation vial and allowed to dry in a fume hood for at least 1 hr.

The next assay deals with E. coli ATCC 25922. In words: Broth microdilution MIC (Example 16). (In broth dilution the organism is exposed to a series of concentrations in liquid medium.)
Assay [2] concerns RNA synthesis in E. coli ATCC 25922. The assay is classed as cell-based, Escherichia coli. To be noted: 8X the MIC.
Assay [3] concerns RNA synthesis in E. coli MMX 121 (K12 tolC mutant). The assay is classed as cell-based, Escherichia coli. The following applies: 8X the MIC.

In the case of `CO/N=C(\C(=O)N[C@@H]1C(=O)N2C(C(=O)O)=C(CSc3nc(=O)c(=O)[nH]n3C)CS[C@H]12)c1csc(N)n1` [Ceftriaxone], in the assay on N. gonorrhoeae, the “CLSI QC range of MIC” value is given as “(0.004-0.015) μg/mL”.

In the case of `Oc1cc(Cl)ccc1Oc1ccc(Cl)cc1Cl` [irgasan], in assay [1], the “inhibition of lipid synthesis” value is given as 63.1%. Further, the minimum inhibitory concentration (MIC) against E. coli ATCC 25922 (E. coli ATCC 25922, inoculum 1) amounted to 0.12 µg/mL (≈ 0.414 µM); against E. coli ATCC 25922 (E. coli ATCC 25922, inoculum 2) it was 0.12 µg/mL (≈ 0.414 µM); in the assay with E. coli ATCC 25922 (E. coli ATCC 25922, inoculum 3), 0.12 µg/mL (≈ 0.414 µM).

On to `CO[C@H]1/C=C/O[C@@]2(C)Oc3c(C)c(O)c4c(O)c(c(/C=N/N5CCN(C)CC5)c(O)c4c3C2=O)NC(=O)/C(C)=C\C=C\[C@H](C)[C@H](O)[C@@H](C)[C@@H](O)[C@@H](C)[C@H](OC(C)=O)[C@@H]1C` [rifampicin], for which the “inhibition of RNA synthesis” value came out at 88.5% in assay [2] (initial assay), 89.4% in assay [2] (repeat assay) and 91.9% in assay [3]. The MIC against E. coli ATCC 25922 (Escherichia coli, ATCC25922) turned out to be 8 µg/mL (≈ 9.72 µM); against E. coli ATCC 25922 (Escherichia coli, ATCC25922, E. coli ATCC 25922, inoculum 1), 8 µg/mL (≈ 9.72 µM); with E. coli ATCC 25922 (Escherichia coli, ATCC25922, E. coli ATCC 25922, inoculum 2), 8 µg/mL (≈ 9.72 µM).

In general, MIC refers to the least concentration at which growth counts as inhibited. Low values mean greater potency, high ones weaker potency.

The values above are taken from patent publication US20230124862A1, “BISMUTH THIOL COMPOUNDS AND COMPOSITIONS AND METHODS OF TREATING MICROBIAL CO-INFECTIONS” (Microbion Corporation, priority 2020, published 2023).
